Results from patent US20160310581A1, “ADAM10 INHIBITION TO TREAT FRAGILE X SYNDROME” (VIB VZW, priority 2013, published 2016).
“Also recorded” adds a separate entry of the source.

How the values were obtained:
ADAM10 [1] = assay: sAPP release into medium of cultured cortical neurons (western blot); format: cell-based, mouse; settings: Fmr1 KO cortical neurons
Protocol: Neuronal culture preparation and stimulation.
(§1) Western Blot. Standard methodologies were used. […] Membranes were incubated using specific antibodies. […] 5 (Molecular Dynamics).
Peptide treatment. […] P20 mice were given intraperitoneal injections of the two peptides (3 nmol/g) and fractionation performed after 24 hrs. Experiment was conducted on WT and KO littermate mice.

mGluR-dependent LTD = assay: DHPG-induced mGluR-LTD, fEPSP recording in hippocampal slices; design: species or system mouse; settings: for LTD of fEPSPs, % of baseline: 240 min; for effect on enhanced mGluR-LTD: Fmr1 KO mice, slices 24 h after peptide treatment; for effect on the ability of DHPG to elicit LTD: WT slices/mice, compared with untreated control
Protocol: Electrophysiology. Animals were euthanized by decapitation, and the right hippocampus was rapidly dissected out into ice-cold (4° C.) artificial cerebrospinal fluid (ACSF) and saturated with carbogen (95% O2/5% CO2). The ACSF consisted of (in mM): 124 NaCl, 4.9 KCl, 24.6 NaHCO3, 1.20 KH2PO4, 2.0 CaCl2, 2.0 MgCl2, and 10.0 glucose, pH 7.4. Transverse slices (400 μm thick) were prepared from the dorsal area of the hippocampus with a tissue chopper and were placed into a submerged-type chamber; samples were kept at 33° C. and continuously perfused with carbogen saturated ACSF at a flow-rate of 2.2 ml/min. After 90 min of incubation, one slice was arbitrarily selected, and a tungsten electrode was placed in the CA1 stratum radiatum. Field excitatory postsynaptic potentials (fEPSPs) were recorded by placing a glass electrode (filled with ACSF, 3-7 MΩ) in the stratum radiatum opposite the stimulating electrode. The time course of the field EPSP was measured as the descending slope function for all sets of experiments. After input/output curves had been established, the stimulation strength was adjusted to elicit a fEPSP-slope of 35% of the maximum and kept constant throughout the experiment. During the baseline recording, 3 single stimuli (0.1 ms pulse width; 10 s interval) were measured every 5 min. The mGluR mediated LTD was induced by a bath application of 30 μM S-DHPG [(S)-3-5-dihydroxy-phenyl glycine; Abcam Chemicals Ltd., Bristol UK] for 15 min (Tambuyzer et al., 2013). During the chemical induction, evoked responses were monitored at 1, 4, 7 and 10 min and then every 5 min until the end of the experiment. All studies were conducted with the experimenter blinded to the treatment regime.

[2] = tested on: group I metabotropic glutamate receptors (mGluR); settings: DHPG 100 μM, 5 min
Protocol: Neuronal culture preparation and stimulation. Mouse primary cortical neurons (E15) were prepared as described (Ferrari et al., 2007). Neurons were treated with the mGluRI agonist DHPG (100 uM) for 5 min as described in Napoli et al., 2008.
Immunoprecipitation and RT-PCR. Mouse brains were lysed and the supernatant was used for the IP according to standardized protocol (Napoli et al., 2008). FMRP antibody or purified rabbit IgGs were incubated with the Protein A Sepharose beads and with brain extract or cells for 1 hr at 4° C. After incubation with the extracts RNA was extracted (Phenol/Chloroform) and precipitated in 2.5 v ethanol. First-strand synthesis was achieved using p(dN)6 and 100 U of Superscript III (Invitrogen) and PCR was performed with GoTaq (Promega), according to the manufacturer's instructions. We used specific oligonucleotides to amplify αCaMKII, App, Adam10, Adam9, Adam17, Cyp46, BC200, D2DR. When RTqPCR was used to quantify immunoprecipitated mRNA, the relative mRNA level in the immunoprecipitation samples was calculated as follows: 2^−[DCp(Ip)−DCp(IgG)]=2^−DDCp, where DCp equals Cp(IP or IgG)-Cp(Input).
Western Blot. Standard methodologies were used. 5-20 μg of total lysate or synaptoneurosomes were separated by SDS-PAGE electrophoresis and blotted on a PVDF membrane (Millipore). […] Further quantification was performed upon Coomassie staining of the membranes.

[3] = Marcello et al., 2007; cited from earlier work
[4] = tested on: dendritic spines of Fmr1 KO mice; assay: Morphological analysis of dendritic spines in vivo (diolistic DiI labelling); design: species or system mouse; settings: 3 nmol/g i.p., 24 h, hippocampal sections, vs TAT-Ala Fmr1 KO mice
Protocol: Morphological analysis. Wild type and Fmr1 KO mice received an intraperitoneal injection with either TAT-Pro or TAT-Ala peptides (3 nmol/g; 14-d-old mice; 8 mice/group). After 24 h, the mice were deeply anaesthetised with an intraperitoneal injection 0.54 mg/g Avertin and then perfused with ice-cold 4% PFA in 0.1M phosphate buffer (PB; 61.2 mM Na2HPO4, 23.2 mM NaH2PO4.H20, pH 7.4). Brains were removed and sectioned in 200 μm thick transverse slices containing both cortex and hippocampus using a Vibratome (Vibratome). Slices were equilibrated in PBS at 4° C. before applying the Dil-coated particles using a diolistic gene-gun system (Bio-Rad laboratories, Italy). 15 min after application, slices were fixed with 4% PFA in 0.1M PB (2 hours) and kept in PB O/N before mounting. Images of Dil-labelled neurons in the hippocampus and cortex were acquired using Zeiss Confocal LSM510 Meta system with 63× objective and a sequential acquisition setting at 1024×1024 pixels resolution. For each image three to four 0.5 μm sections were acquired and z-projection was obtained. Morphological analysis of dendritic spines was performed using freely available ImageJ 1.42q software (Wayne Rasband National Institutes of Health, USA), and spine length, head width and neck width were measured.

ADAM10 [5] = assay: sAPPα levels in brain after intraperitoneal peptide injection (brain fractionation, western blot); format: in vivo, mouse; settings: Fmr1 KO mice; single i.p. injection 3 nmol/g, 24 h; vs TAT-Ala treated Fmr1 KO mice
Protocol: as §1
Brain fractionation. Half brain was homogenized in STE buffer (Sucrose 0.32 M, 5 mMTris HCl pH 7.4, 1 mM EDTA, PSMF 0.1 mM, 10 μl ml^−1 Protease inhibitor cocktail (PIC, Sigma). The homogenized tissue was centrifuged at 800 g for 10 min to pull down nuclei. The resulting supernatant was then centrifuged at 55000 rpm 1 h. The supernatant (S1) was collected while the pellet was dissolved in 1% Triton STE Buffer and centrifuged at 55.000 rpm (TLX) for 1 hr. The supernatant is collected (S2) and the final pellet homogenized in SDS Laemmli buffer 1× (Triton-insoluble fraction, P1).
Peptide treatment. Specific (TAT-PRO) or control (TAT-ALA) peptides (10 μM) were added to the media of DIV14 WT and KO cultured neuron and the release of sAPP was monitored by WB after 24 h. P20 mice were given intraperitoneal injections of the two peptides (3 nmol/g) and fractionation performed after 24 hrs. Experiment was conducted on WT and KO littermate mice.

Fmr1 KO mice = assay: Behavioral tests: open field (hyperactivity) and T-maze (working memory); format: in vivo, mouse; settings: P24-25
Protocol: Behavioral tests. All behavioral experiments were performed with P24-25 male mice and blind to the genotype and treatment. We used a minimum of 9 animals per genotype and treatment. Mice were habituated to their new environment for 3 days and tests were conducted during the light phase of their activity cycle. Health and weight of the mice were recorded routinely during the whole period of testing.
Open-field exploration was tested in 50 cm×50 cm×30 cm (w×l×h) square arena illuminated by indirect light. Animals were dark adapted for 30 min and placed in the arena for 10 min each. Movements of the mice in the arena were video-tracked for 10 min and the images were transmitted to a PC equipped with ANY-maze™ Video Tracking System software (Stoelting Co., IL, USA).
Spatial working memory was evaluated in a delayed nonmatching alternation test using an elevated open T-shaped maze made of dark grey plastic. The maze was composed of three 50 cm×7 cm×4 cm (l×w×h) arms elevated 25 cm above the ground. Behavior was registered with a PC-interfaced camera and analyzed with ANY-maze™ Video Tracking System software (Stoelting Co., IL, USA). The mouse was subjected to two trials. During the exploration trial, one of the horizontal T-maze arms (novel arm) was blocked with a 10 cm high door and the mouse was placed into the start arm to explore freely the start and familiar arms for 5 min. […]

ADAM10/SAP97 interaction = ADAM10/SAP97 interaction (Mus musculus, UniProt Q811D0); settings: Marcello et al., 2007; cited from earlier work
Chain of ADAM10/SAP97 interaction (Q811D0 whole entry): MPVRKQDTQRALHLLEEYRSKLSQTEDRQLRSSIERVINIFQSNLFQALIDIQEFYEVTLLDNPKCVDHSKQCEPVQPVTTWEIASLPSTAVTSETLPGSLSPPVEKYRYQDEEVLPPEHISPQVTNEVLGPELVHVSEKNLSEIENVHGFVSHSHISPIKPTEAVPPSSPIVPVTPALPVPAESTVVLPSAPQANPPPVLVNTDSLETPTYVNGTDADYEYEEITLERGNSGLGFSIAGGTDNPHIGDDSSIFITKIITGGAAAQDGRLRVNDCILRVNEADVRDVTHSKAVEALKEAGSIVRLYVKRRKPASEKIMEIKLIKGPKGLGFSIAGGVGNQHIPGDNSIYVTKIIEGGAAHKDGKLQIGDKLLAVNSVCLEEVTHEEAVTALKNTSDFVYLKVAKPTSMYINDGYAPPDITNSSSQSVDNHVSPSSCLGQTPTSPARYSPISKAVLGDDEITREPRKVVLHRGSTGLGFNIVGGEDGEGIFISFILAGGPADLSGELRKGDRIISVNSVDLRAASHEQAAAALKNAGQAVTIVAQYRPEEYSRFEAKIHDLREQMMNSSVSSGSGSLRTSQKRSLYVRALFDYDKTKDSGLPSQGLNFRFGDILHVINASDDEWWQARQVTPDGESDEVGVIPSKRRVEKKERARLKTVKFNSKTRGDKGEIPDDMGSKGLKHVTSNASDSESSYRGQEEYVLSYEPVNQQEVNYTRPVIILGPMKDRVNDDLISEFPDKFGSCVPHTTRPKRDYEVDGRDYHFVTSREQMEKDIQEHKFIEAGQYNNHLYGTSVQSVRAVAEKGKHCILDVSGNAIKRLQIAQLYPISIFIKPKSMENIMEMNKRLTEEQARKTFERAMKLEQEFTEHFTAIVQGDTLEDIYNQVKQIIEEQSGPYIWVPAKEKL

Molecule: TIMP-1: tissue inhibitor of metalloproteinase-1, an inhibitor of metalloproteinases
- sAPP release in the medium (ADAM10 [1]; TIMP-1 15 nM for 4 h): significantly reduces sAPP release

Molecule: N[C@H](C(=O)O)c1cc(O)cc(O)c1 [DHPG, (S)-3-5-dihydroxy-phenyl glycine]
- LTD of fEPSPs, % of baseline (mGluR-dependent LTD; Fmr1 KO mice slices, DHPG 30 μM, 15 min): 28±3%
- LTD of fEPSPs, % of baseline (mGluR-dependent LTD; WT slices, DHPG bath application 30 μM, 15 min): 53±9%
- expression of APP ([2]; primary cortical neurons DIV14): induced an increase
- amount of App mRNA associated with FMRP ([2]; primary cortical neurons): reduced by threefold

Molecule: TAT-Pro: Cell-permeable anti-ADAM10 peptide YGRKKRRQRRRPKLPPPKPLPGTLKRRRPPQP (SEQ ID NO:1): 11 aa Tat transporter sequence linked to 21 aa ADAM10 proline rich domains (Tat-Pro ADAM10 709-729 peptide)
- blood-brain barrier crossing [3]: crosses the blood-brain barrier
- spines density [4]: decreases spines density
- spines length [4]: significantly increases
- spines width [4]: significantly increases
- sAPPα levels in brain (ADAM10 [5]): significant reduction of sAPPα levels
- sAPP release in the medium (ADAM10 [1]; peptide 10 μM, 1 h, compared to TAT-Ala exposed neurons): significantly decreases sAPP release; also recorded: reduces sAPP release
- behavioural deficits (open field hyperactivity, T-maze working memory) (Fmr1 KO mice): partially ameliorates the behavioural deficits
- ADAM10/SAP97 interaction (ADAM10/SAP97 interaction): interferes with ADAM10/SAP97 interaction
- effect on enhanced mGluR-LTD (mGluR-dependent LTD; DHPG 30 μM, 15 min, listed as Tat-Pro): prevents mGluR-LTD
- effect on enhanced mGluR-LTD (mGluR-dependent LTD; DHPG 30 μM, 15 min, listed as Tat-Pro ADAM10^709-729): sufficient to prevent the enhanced LTD
- fEPSP after DHPG-induced LTD (% of baseline) (mGluR-dependent LTD; WT slices, 24 h after peptide treatment, DHPG 30 μM, 15 min): 65±8%
- effect on the ability of DHPG to elicit LTD (mGluR-dependent LTD; listed as Tat-Pro): does not impact LTD
- effect on the ability of DHPG to elicit LTD (mGluR-dependent LTD; listed as Tat-Pro ADAM10^709-729): no detectable effect
